Marks after values point to notes of the source that are not given here.
Assays:
LNCaP cells = test: MTT cytotoxicity assay, LNCaP cells; format: cell-based; conditions: Homo sapiens, 24 h treatment, means ± SD, n = 3
Method: (§1) The LNCaP cells were grown in RPMI 1640 medium(Gibco Invitrogen, CA) containing 10% FBS and 1% penicillin/streptomycin and the DU145 cells were grown in Eagle’s minimum essential medium (MEM) (Gibco Invitrogen, CA) with 2 mM L-glutamine and Earle’s BSS, 1.5 g/L sodium bicarbonate, 0.1mM non-essential amino acids, 1 mM sodium pyruvate, 10% FBS and 1% penicillin/streptomycin.
(§2) The cytotoxic effect of MTX, [Dlys^6]-LHRH, and [Dlys^6]-LHRH-MTX was evaluated using the methylthiazol tetrazolium (MTT) assay (Sigma Aldrich, MO), which determines the number of viable cells from the formazan crystals produced by metabolic activity.
(§3) In the equation, T represents the absorption value of the treatment group; C is the absorption value of the control (untreated) group; and B refers to the absorption value of the culture medium. IC50 values (μg/mL) were calculated with SPSS software. In a competition assay, Prostate cancer cells (5,000 per well) were separately incubated in 96-well plates in triplicate with [DLys^6]-LHRH–MTX alone and [DLys^6]-LHRH free peptide and [DLys^6]-LHRH–MTX together, and the cells were incubated for 24 hr. The plates were then analyzed with the MTT method.

PC-3 cells [1] = test: Apoptosis analysis, Annexin V-FITC/PI staining, flow cytometry; format: cell-based, human; conditions: 24 h; for late apoptotic/early necrotic (AV+/PI+) cells: quadrant B2; for early apoptotic (AV+/PI−) populations: quadrant B4
Method: To quantitatively investigate apoptotic and early necrotic events in these treated cultures, the fluorescent probe Annexin V-FITC and PI were used, The presence of a apoptotic and early necrotic cells was then determined and quantified by flow cytometry analysis which clearly differentiated normal cells with low Annexin V-FITC and low PI staining, apoptotic cells with high Annexin V-FITC and low PI staining, necrotic cells with high Annexin V-FITC and high PI staining and cell debris with low Annexin VFITC and high PI staining.
Figure 4 Quantitative apoptotic measurement in PC-3 cells after treatment with [DLys^6]-LHRH-MTX and MTX, the concentration-dependent effects on apoptosis following treatment with MTX and [DLys^6]-LHRH-MTX for 24 at doses of 0.98 μmol/L and 3.91 μmol/L were determined by flow cytometry analysis. Results were expressed as a dot plot of Annexin V -FITC vs. PI. […]
To quantitatively evaluate the induction of apoptosis by flow cytometry, Annexin-V-FITC/PI staining was performed. Briefly, PC-3 cells were seeded in a 6-well culture plate at a density of 2 × 10^5 cells per well, and treated with various concentrations of MTX or [Dlys^6]-LHRH or [Dlys^6]-LHRH-MTX for 24 h. The cells were harvested and then stained with Annexin V-FITC/PI solution (1:1, v/v, […]) in the dark for 15 min at room temperature. After washing with PBS, the cell suspensions in buffer were gently vortexed, and analyzed within 1 h by flow cytometry (Beckton Dickinson, CA, […]).

PC-3 cells [2] = test: MTT cytotoxicity assay, PC-3 cells; format: cell-based; conditions: Homo sapiens, 24 h treatment, means ± SD, n = 3
DU145 cells = test: MTT cytotoxicity assay, DU145 cells; format: cell-based; conditions: Homo sapiens, DU-145, 24 h treatment, means ± SD, n = 3
Method: as §1, §2, §3

[3] = tested on: normal human prostate fibroblast (HPrF) cells; test: cells
Method: (§4) To determine the selectivity of LHRH-MTX, we performed a MTT experiment with normal human prostate fibroblast (HPrF) cells.
(§5) HPrF cells were exposed to MTX or [DLys^6]-LHRH-MTX at 0.015-1000 μmol/L. Growth inhibition was determined by MTT assay.
(§6) PC-3 cells and HPrF cells were maintained in T-media (Gibco Invitrogen, CA) supplemented with 10% fetal bovine serum (FBS) (Gibco Invitrogen, CA) and 1% penicillin/streptomycin (Cellgro Mediatech, nc., VA). […]
(§7) The cytotoxic effect of MTX, [Dlys^6]-LHRH, and [Dlys^6]-LHRH-MTX was evaluated using the methylthiazol tetrazolium (MTT) assay (Sigma Aldrich, MO), which determines the number of viable cells from the formazan crystals produced by metabolic activity[26][33][34]. […] The absorption at 570 nm was recorded with an ELISA plate reader (Bio-Rad, Microplate Reader 550 and the growth inhibitory (GI) rate was calculated according to the following equation: GI(%) = 100 − [T − B)/(C − B) × 100].

PC-3 tumor xenografts = test: In vivo anti-tumor activity, PC-3 tumor xenografts; design: species or system athymic BALB/c nude mice; conditions: for effect on tumor volume / Mean tumor weight / Mean tumor volume, Final: end of study; for Inhibition ratio of tumor weight / Inhibition ratio of tumor volume: against saline; for Inhibition ratio of tumor weight / Inhibition ratio of tumor volume / Mean tumor volume, Initial / Mean tumor weight / Mean tumor volume, Final / Tumor volume doubling time: n = 10; for Inhibition ratio of tumor volume / Tumor volume doubling time: i.v. twice weekly for 4 weeks; for Mean tumor volume, Initial: baseline, nude mice with PC-3 xenografts; for Mean tumor volume, Initial / Mean tumor weight / Mean tumor volume, Final: means ± SD; for Mean tumor volume, Final: i.v. tail vein twice weekly for 4 weeks; for Tumor volume doubling time: saline control 6.13 days
Method: Four week-old male athymic BALB/c nude mice were obtained from Sino-British SIPPR/BK Laboratory Animal Ltd (Shanghai, China). The animals were housed in sterile cages under laminar flow hoods in a temperature-controlled room with a 12h light/12h dark schedule and were fed autoclaved chow and water ad libitum.
PC-3 cells were harvested from subconfluent cultures after a brief exposure to 0.25% trypsin and 0.2% EDTA. Trypsinization was stopped by adding medium containing 10% FBS. The cells were washed once in serum-free medium and resuspended in PBS. Only suspensions consisting of single cells with >90% viability were used for the injections. PC-3 cells (1 × 10^7) in 100 μL PBS suspended in Matrigel (0.1 mg, Collaborative Biomedical Products Becton Dickinson Labware, Bedford, MA) were injected subcutaneously into the interscapular area using a 27-gauge needle.
On day 21, after PC-3 cell implantation, mice bearing tumors […] were randomized into the following four treatment groups (n = 10): saline controls, MTX treatment, [Dlys^6]-LHRH-MTX treatment and MTX plus [Dlys^6]-LHRH treatment. Treatments were made in 100 μL PBS and were given intravenously by tail vein injection twice weekly for 4 weeks. The vehicle-treated group received an equivalent amount of PBS. Tumor volumes were measured with calipers and the body weights of the mice were measured twice a week. Tumor volumes were calculated with the following formula: V(mm^3) = length × width^2/2, where width represents the shortest measurement in millimeters. The animals were euthanized 7 days after the last treatment. Body weights, tumor weights and organ weights were recorded.

[4] = tested on: prostate cancer cell lines (PC-3, DU145 and LNCaP); test: MTT cytotoxicity assay, prostate cancer cell lines as a group; format: cell-based, human; conditions: 24 h
Method: as §1, §2, §3

[5] = tested on: normal human prostate fibroblast (HPrF) cells
Method: as §4, §5, §6, §7

Row | Compound | IC50 (LNCaP cells) [µM] | late apoptotic/early necrotic (AV+/PI+) cells (PC-3 cells [1]; PC-3, 0.98 μmol/L) [%] | early apoptotic (AV+/PI−) populations (PC-3 cells [1]; PC-3, 0.98 μmol/L) [%] | late apoptotic/early necrotic (AV+/PI+) cells (PC-3 cells [1]; PC-3, 3.91 μmol/L) [%] | early apoptotic (AV+/PI−) populations (PC-3 cells [1]; PC-3, 3.91 μmol/L) [%] | IC50 (PC-3 cells [2]) [µM] | IC50 (DU145 cells) [µM] | IC50 [3] [µM] | effect on tumor volume (PC-3 tumor xenografts; PC-3 xenografts) | Inhibition ratio of tumor weight (PC-3 tumor xenografts) [%] | Inhibition ratio of tumor volume (PC-3 tumor xenografts) [%] | Mean tumor volume, Initial (PC-3 tumor xenografts) [mm3] | Mean tumor weight (PC-3 tumor xenografts) | Mean tumor volume, Final (PC-3 tumor xenografts) | Tumor volume doubling time (PC-3 tumor xenografts) [days] | cytotoxicity against prostate cancer cell lines [4] | cytotoxicity against HPrF cells [5] | histology of tumor sections, hematoxylin/eosin (PC-3 tumor xenografts; PC-3 xenografts, Fig. 7) | tumor burden (PC-3 tumor xenografts; day 30, n = 10, Fig. 6)
1 | CN(Cc1cnc2nc(N)nc(N)c2n1)c1ccc(C(=O)N[C@@H](CCC(=O)O)C(=O)O)cc1 [MTX, Methotrexate] | 9.68 ± 1.24 | 8.35 | 15.38 | 9.52 | 30.88 | 6.34 ± 1.01 | 8.03 ± 1.29 | 42.3 ± 7.25 | significant anti-tumor effects | 59.90 | 61.88 | 63.38 ± 7.38 | 0.82 ± 0.12 ^a g | 700.39 ± 36.48 ^a mm3 | 8.88 |  |  |  | 
2 | [DLys^6]-LHRH |  |  |  |  |  |  |  |  | did not affect the tumor volume | 4.41 | 2.88 | 62.49 ± 13.70 | 1.95 ± 0.34 g | 1784.58 ± 95.99 mm3 | 6.13 | no cytotoxicity | no cytotoxicity | predominantly viable cells | unchanged
